Results reported in patent US20210323950A1, “HERBICIDALLY ACTIVE BICYCLIC BENZOYLPYRAZOLES” (Bayer Aktiengesellschaft, priority 2018, published 2021).

Assays:
Format in all cases: in vivo
[1] = test system: Viola tricolor (VIOTR); assay: Post-emergence herbicidal action against VIOTR; details: 20 g/ha, post-emergence at one-leaf stage, rated visually after about 3 weeks vs untreated controls
Method: (§1) VIOTR: Viola tricolor 2. Post-Emergence Herbicidal Action and Crop Plant Compatibility Seeds of monocotyledonous and dicotyledonous weeds and crop plants are placed in sandy loam in plastic or organic planting pots, covered with soil and cultivated in a greenhouse under controlled growth conditions. 2 to 3 weeks after sowing, the test plants are treated at the one-leaf stage. The compounds of the invention, formulated in the form of wettable powders (WP) or as emulsion concentrates (EC), are then sprayed onto the green parts of the plants as aqueous suspension or emulsion with addition of 0.5% additive at a water application rate of […] (converted). After the test plants had been kept in the greenhouse under optimum growth conditions for about 3 weeks, the activity of the preparations is rated visually in comparison to untreated controls. The tables below show the herbicidal activity of numerous compounds according to the invention against important harmful plants. For example, 100% activity=the plants have died, 0% activity=like control plants.

[2] = test system: Amaranthus retroflexus (AMARE); assay: Post-emergence herbicidal action against AMARE; details: 20 g/ha, post-emergence at one-leaf stage, rated visually after about 3 weeks vs untreated controls
Method: as §1, with “AMARE: Amaranthus retroflexus” for “VIOTR: Viola tricolor”

[3] = test system: Stellaria media (STEME); assay: Pre-emergence herbicidal action against STEME; details: 80 g/ha, scored visually after about 3 weeks vs untreated controls
Text: (§2) STEME: Stellaria media 1. Pre-Emergence Herbicidal Action and Crop Plant Compatibility Seeds of monocotyledonous and dicotyledonous weed plants and crop plants are placed in plastic or organic planting pots and covered with soil. The compounds of the invention, formulated in the form of wettable powders (WP) or as emulsion concentrates (EC), are then applied onto the surface of the covering soil as aqueous suspension or emulsion with addition of 0.5% additive at a water application rate of […] (converted). After the treatment, the pots are placed in a greenhouse and kept under good growth conditions for the trial plants. After about 3 weeks, the effect of the preparations is scored visually in comparison with untreated controls as percentages. The tables below show the herbicidal activity of numerous compounds according to the invention against important harmful plants. For example, 100% activity=the plants have died, 0% activity=like control plants.

[4] = test system: Echinochloa crus-galli (ECHCG); assay: Post-emergence herbicidal action against ECHCG; details: 20 g/ha, post-emergence at one-leaf stage, rated visually after about 3 weeks vs untreated controls
Method: as §1, with “ECHCG: Echinochloa crus-galli” for “VIOTR: Viola tricolor”

[5] = test system: Amaranthus retroflexus (AMARE); assay: Pre-emergence herbicidal action against AMARE; details: scored visually after about 3 weeks vs untreated controls
Text: as §2, with “AMARE: Amaranthus retroflexus” for “STEME: Stellaria media”

[6] = test system: Veronica persica (VERPE); assay: Post-emergence herbicidal action against VERPE; details: 20 g/ha, post-emergence at one-leaf stage, rated visually after about 3 weeks vs untreated controls
Method: as §1, with “VERPE: Veronica persica” for “VIOTR: Viola tricolor”

[7] = test system: Stellaria media (STEME); assay: Post-emergence herbicidal action against STEME; details: 20 g/ha, post-emergence at one-leaf stage, rated visually after about 3 weeks vs untreated controls
Method: as §1, with “STEME: Stellaria media” for “VIOTR: Viola tricolor”

[8] = test system: Veronica persica (VERPE); assay: Pre-emergence herbicidal action against VERPE; details: 80 g/ha, scored visually after about 3 weeks vs untreated controls
Text: as §2, with “VERPE: Veronica persica” for “STEME: Stellaria media”

[9] = test system: Abutilon theophrasti (ABUTH); assay: Post-emergence herbicidal action against ABUTH; details: 20 g/ha, post-emergence at one-leaf stage, rated visually after about 3 weeks vs untreated controls
Method: as §1, with “ABUTH: Abutilon theophrasti” for “VIOTR: Viola tricolor”

[10] = test system: Setaria viridis (SETVI); assay: Post-emergence herbicidal action against SETVI; details: 20 g/ha, post-emergence at one-leaf stage, rated visually after about 3 weeks vs untreated controls
Method: as §1, with “SETVI: Setaria viridis” for “VIOTR: Viola tricolor”

| Compound | Post-emergence action against VIOTR [1] [%] | Post-emergence action against AMARE [2] [%] | Pre-emergence action against STEME [3] [%] | Post-emergence action against ECHCG [4] [%] | Pre-emergence action against AMARE ([5]; 80 g/ha) [%] | Post-emergence action against VERPE [6] [%] | Post-emergence action against STEME [7] [%] | Pre-emergence action against VERPE [8] [%] | Post-emergence action against ABUTH [9] [%] | Post-emergence action against SETVI [10] [%] | Pre-emergence action against AMARE ([5]; 320 g/ha) [%] |
| --- | --- | --- | --- | --- | --- | --- | --- | --- | --- | --- | --- |
| Cc1nn(C)c(O)c1C(=O)c1ccc(C(F)(F)F)c2c1SCS2 [Example 1-68] | 80 | 90 | 100 | 80 | 100 | – | – | – | – | – | – |
| Cn1ncc(C(=O)c2ccc(C(F)(F)F)c3c2SCS3(=O)=O)c1O [Example 1-85] | – | 90 | 100 | – | 100 | 80 | 80 | 90 | – | – | – |
| CCn1ncc(C(=O)c2ccc(C(F)(F)F)c3c2OCS3)c1O [Example 1-18] | 100 | – | – | 80 | – | – | 90 | – | 80 | 80 | 100 |
